From patent US20220331414A1, “LIPID COMPOUNDS AND LIPID NANOPARTICLE COMPOSITIONS” (Suzhou Abogen Biosciences Co., Ltd., priority 2020, published 2022)

Legend:
[1] = Apparent pKa of LNP formulations by TNS fluorescence assay; details: LNP cationic lipid/DSPC/cholesterol/DMG-PEG 50/10/38.5/1.5 mol %, pH 3 to 9
[2] = Lipid nanoparticle size and polydispersity by dynamic light scattering; format: physicochemical; details: LNP of cationic lipid/DSPC/cholesterol/PEG-lipid 50:10:38.5:1.5 with mRNA
Protocol: (§1) Briefly, a cationic lipid provided herein, DSPC, cholesterol, and PEG-lipid were solubilized in ethanol at a molar ratio of 50:10:38.5:1.5, and mRNA were diluted in 10 to 50 mM citrate buffer, pH=4. The LNPs were prepared at a total lipid to mRNA weight ratio of approximately 10:1 to 30:1 by mixing the ethanolic lipid solution with the aqueous mRNA solution at a volume ratio of 1:3 using a microfluidic apparatus, total flow rate ranging from 9-30 mL/min. Ethanol were thereby removed and replaced by DPBS using dialysis. Finally, the lipid nanoparticles were filtered through a 0.2 μm sterile filter.
(§2) Lipid nanoparticle size were determined by dynamic light scattering using a Malvern Zetasizer Nano ZS (Malvern UK) using a 173° backscatter detection mode. The encapsulation efficiency of lipid nanoparticles were determined using a Quant-it Ribogreen RNA quantification assay kit (Thermo Fisher Scientific, UK) according to the manufacturer's instructions.

[3] = Encapsulation efficiency of lipid nanoparticles (Quant-it Ribogreen RNA assay); format: physicochemical; details: LNP of cationic lipid/DSPC/cholesterol/PEG-lipid 50:10:38.5:1.5 with mRNA
Protocol: as §1, §2

| SMILES | Apparant Pka [1] | polydispersity [2] | size (nm) [2] [nm] | Encapsulation Efficiency [3] [%] |
| --- | --- | --- | --- | --- |
| CCCCCCCCC(CCCCCC)COP(=O)(NCCN1CCC(O)C1)OCC(CCCCCC)CCCCCCCC (centres unmarked) [Compound 63] | 6.892 | 0.148 | 53.85 | 97.0 |
| CCCCCCCCC(CCCCCC)C(C)OP(=O)(NCCN(CC)CC)OC(C)C(CCCCCC)CCCCCCCC (centres unmarked) [Compound 59] | 4.385 | 0.118 | 90.85 | 58.6 |
| CCCCCCCCC(CCCCC)COP(=O)(NCCN1CCCC1)OCC(CCCCC)CCCCCCCC (centres unmarked) [Compound 74] | 6.381 | 0.162 | 66.97 | 96.9 |
| CCCCCCCCC(CCCCCC)COP(=O)(OCCN1CCCCC1)OCC(CCCCCC)CCCCCCCC (centres unmarked) [Compound 77] | 5.309 | 0.138 | 63.36 | 85.2 |
| CCCCCCCCC(CCCCCCCC)COP(=O)(NCCN(CC)CC)OCC(CCCCCCCC)CCCCCCCC [Compound 80] | 6.259 | 0.172 | 57.31 | 94.2 |
| CCCCCCCCC(CCCCCC)COP(=O)(NCCN1CCCCCC1)OCC(CCCCCC)CCCCCCCC (centres unmarked) [Compound 28] | 4.92 | 0.204 | 77.49 | 48.1 |
| CCCCCCCCCOP(=O)(NCCCN(C)C)OCCCCCCCC(=O)OC(CCCCCCCC)CCCCCCCC (centres unmarked) [Compound 32] | 8.96 | 0.077 | 80.54 | 101.1 |
| CCCCCCCCCCCCCOP(=O)(NCCCN1CCCC1)OCCCCCCCCCCCCC [Compound 12] | 6.13 | 0.137 | 164.9 | 94.0 |
| CCCCCCCCCCC(CCCCCC)COP(=O)(NCCN(CC)CC)OCC(CCCCCC)CCCCCCCCCC (centres unmarked) [Compound 66] | 6.149 | 0.141 | 54.17 | 94.4 |
| CCCCCCCCCCCCCOP(=O)(OCCCCCCCCCCCCC)N1CC2(CCN(C)CC2)C1 [Compound 20] | 5.81 | 0.068 | 92.15 | 94.2 |
| CCCCCCCCCCCCCOP(=O)(NC1CCN(C2CCOCC2)CC1)OCCCCCCCCCCCCC [Compound 16] | 7.75 | 0.113 | 305.4 | 79.9 |
| CCCCCCCCC(CCCCCCCC)OC(=O)CCCCCCCOP(=O)(NCCN(C)C)OCCCCCCCC(=O)OC(CCCCCCCC)CCCCCCCC [Compound 38] | 5.84 | 0.094 | 108.5 | 45.9 |
| CCCCCCCCCOP(=O)(NCCCN(C)C)OCCCCCCCCC [Compound 4] | 8.26 | 0.055 | 72.06 | 73.2 |
| CCCCCCCCC(CCCCCC)COP(=O)(NCCCN1CCC1)OCC(CCCCCC)CCCCCCCC (centres unmarked) [Compound 23] | 7.43 | 0.234 | 57.36 | 100.4 |
